Laboratory results reported in patent US20090137662A1, “SYNERGY OF DOPAMINE D2 AND ADENOSINE A2 RECEPTORS ACTIVATES PKA SIGNALING VIA BETA/GAMMA DIMERS” (The Regents of the University of California, priority 2002, published 2009).
Counter-ions that a name gives are not always drawn. Like-named read-outs stand apart in the source and are kept apart here.

Assays:
ε-PKC [1] = assay: Translocation of ε-PKC in NG108-15 and CHO cells expressing the applicable receptor; format: cell-based
Excerpt: (§1) To determine whether addictive drugs other than ethanol would cause translocation of some proteins, we examine the effects of various receptor agonists and antagonists on ε-PKC δ-PKC or PKA Cα translocation in NG108-15 and CHO cells expressing the applicable receptor. […] Adenosine is also implicated in some behavioral effects of ethanol.
(§2) The mechanisms underlying ethanol- and dopamine-mediated translocation of ε-PKC and δ-PKC were studied by altering the activity of various molecules that might be in the pathways leading to translocation.

[2] = system: CRE-regulated luciferase expression; assay: CRE-luciferase reporter in NG108-15 cells; format: cell-based
Protocol: Luciferase is used as a reporter gene in a transient expression system to identify substances that alter the effects of ethanol on CRE-regulated gene expression. Cells are cultured as described in Dohrman et al., Proc Natl Acad Sci USA (1996) 93:10217-10221, and are transfected using Effectene (Qiagene) as described by the manufacturers. Twenty-four hours after transfection the cells are treated with 200 mM ethanol for 30 min. to 36 hr. Luciferase activity is measured using Luciferase Assay System (Promega) and normalized to β-galactosidase activity.
(§3) NG108-15 cells were co-transfected with a fusion construct containing the cAMP response element (CRE) fused to luciferase as a reporter gene (Stratagene).
Since the ERK/MAPK pathway may regulate CREB phosphorylation and CRE-mediated gene expression, NG108-15 cells having the luciferase construct were co-incubated with 200 mM ethanol and a MEK inhibitor (PD98059 (2 nM, Calbiochem, San Diego, Calif.) or U0126 (1 μM, Calbiochem, San Diego, Calif.)) or a dominant negative MEK construct (DN-MEK, Dr. R. Seger) in which Lys-97 was replaced by alanine.
as §3

PKA Cα [3] = format: cell-based; settings: for translocation of PKA-Cα after co-incubation with NPA: 10 minute co-incubation with 10^−10M NPA, 10^−11M DADLE or 2×10^−10M methanindamide
Excerpt: as §1

PKA Cα [4] = assay: PKA Cα translocation in primary cultures of hippocampal neurons; settings: for effect of agent alone on PKA Cα localization: data not shown
ε-PKC [5] = format: cell-based
Protocol: NG 108-15 or CHO cells were pre-incubated in the presence or absence of the indicated inhibitor for 30 min. (except for GF which was pre-incubated for 1 hour), then further incubated in the absence or presence of 200 mM ethanol for 30 min.

δ-PKC [6] = format: cell-based; settings: naive NG108-15 cells; 100 nM PMA, 10 min.
Protocol: (§4) Naive NG108-15 cells were, therefore, incubated in for ten (10) min. in 100 nM PMA, to then determine localization of δ-PKC and ε-PKC.

ε-PKC [7] = format: cell-based; settings: naive NG108-15 cells; 100 nM PMA, 10 min.
Protocol: as §4

[8] = system: CREB (GAL4-CREB fusion, luciferase reporter); assay: GAL4-CREB / GAL4-luciferase reporter in NG108-15 cells; format: cell-based; settings: 20 μM Rp-cAMPS 2 h, 5 μM KN-62 or 50 nM GF 30 min pretreatment, then ethanol 14 hours
Protocol: Cells are cultured as described in Dohrman et al., Proc Natl Acad Sci USA (1996) 93:10217-10221, and are transfected using Effectene (Qiagene) as described by the manufacturers. […] Luciferase activity is measured using Luciferase Assay System (Promega) and normalized to β-galactosidase activity.
NG108-15 cells are co-transfected with a GAL4-CREB fusion construct and with a second construct containing the DNA binding site of GAL4 fused to luciferase as a reporter gene. […] The ethanol-induced increase in luciferase activity induced was inhibited by Rp-cAMPS but not by the CaMK and PKC inhibitors KN-62 and GF, respectively (FIGS. 15 and 16B).

δ-PKC [9] = assay: Translocation of δ-PKC in NG108-15 and CHO cells expressing the applicable receptor; format: cell-based
Excerpt: as §1, §2

[10] = system: CRE-mediated gene expression; assay: CRE-luciferase reporter assay in NG108-15/D2 cells; settings: NG108-15/D2 cells; spiperone, Rp-cAMPS or PTX alone
Protocol: Cells were transiently transfected with a CRE-luciferase reporter construct to measure gene expression via endogenous CRE-binding protein (CREB).
NG108-15/D2 cells were plated at 1×10^6 cells/100 mm plate, grown in defined medium for 3 days, and then transfected with 10 μg of CRE-luciferase construct using the LipofectAMINE reagent (GIBCOL) as recommended by the manufacturer. Cells were cultured for 24 h post transfection before being seeded into 12-well plates. […] Cells were then washed with PBS and cultured for a total of 5 h. Cell extracts were prepared and luciferase activity measured with a luciferase assay system (Promega, Madison, Wis.), using a Rosys Anthos Lucy2 microplate luminometer (Anthos Labtec Instruments, Austria). Results are expressed as percent increase over control. Data represent three or more separate experiments from triplet wells. Luciferase activities were normalized for transfection efficiency determined in cells transfected in parallel with pCMVβgalactosidase. β-galactosidase activity was measured using a kit from Strategene (La Jolla, Calif.).

[11] = system: PKA subunits (RIα, RIIα, RIβ, Cα, Cβ, Cγ); assay: Immunocytochemical localization of PKA subunits in neutrophils; format: cell-based, human
Excerpt: Methods 5:249-252 (1974). […] This step removed contaminating platelets from the lymphocyte fraction. […] Images were further analyzed using NIH Image.

[12] = NG108-15 cells expressing the applicable receptor, 200 mM Ethanol, 50 nM NPA, 1 μM D-ala-D-leu-enkephalin, 2 μM R(+) methanindamide, 20 μM Carbachol, 10^−5 M UK14304, 20 nM CCPA, 100 nM CGS-21680 HCl, None: Perinucleus
[13] = primary hippocampal neurons, 50 nM NPA, spiperone 10 μM, DPCPX 100 nM, DMPX 10 μM 30 min, Rp-cAMPS 20 μM 1.5 hours, PTX 50 ng/ml or Ad5QEHA overnight
[14] = CHO cells expressing the dopamine D2 receptor
[15] = NG108-15 cells expressing the dopamine D2 receptor
[16] = NG108-15 cells, H-89 10 μM, PD98059 2 nM, U0126 1 μM, DN-RIα, DN-MEK, CREB-M1 constructs co-transfected
[17] = PKA agonist Sp-cAMPS, or forskolin or PGE1 to increase cAMP levels
[18] = 10 μM spiperone or 10 μM BW 1434 + 200 mM ethanol

## OC[C@H]1O[C@@H](n2cnc3c(NC4CCCC4)nc(Cl)nc32)[C@H](O)[C@@H]1O [CCPA, 2-chloro-N^6-cyclopentyladenosine]
ε-PKC [1]; [12]
  Predominant Localization of ε-PKC (agent alone): Cytoplasm

## CCNC(=O)[C@H]1O[C@@H](n2cnc3c(N)nc(NCCc4ccc(CCC(=O)O)cc4)nc32)[C@H](O)[C@@H]1O [CGS-21680 HCl]
ε-PKC [1]; [12]
  Predominant Localization of ε-PKC (agent alone): Cytoplasm

## C[N+](C)(C)CCOC(N)=O [Carbachol]
ε-PKC [1]; [12]
  Predominant Localization of ε-PKC (agent alone): Perinucleus

## CC(C)C[C@@H](NC(=O)[C@H](Cc1ccccc1)NC(=O)CNC(=O)[C@@H](C)NC(=O)[C@@H](N)Cc1ccc(O)cc1)C(=O)O [DADLE, enkephalin (D-ala2,D-leu5)]
[2]; NG108-15 cells, 10 nM DADLE, four hours
  increase in luciferase expression: 40%
ε-PKC [1]
  Predominant Localization of ε-PKC (agent alone): Cytoplasm
PKA Cα [3]
  translocation of PKA-Cα after co-incubation with ethanol: Synergistic translocation
  translocation of PKA-Cα after co-incubation with NPA: Synergistic translocation
PKA Cα [3]; 10 minute coincubation of 10^−11M DADLE and 2×10^−10M methanindamide
  translocation of PKA-Cα after co-incubation of δ-opioid and cannabinoid: did not result in synergistic translocation

## C#CCn1c(=O)c2c(ncn2C)n(C)c1=O [DMPX]
PKA Cα [4]; [13]
  effect on NPA-induced PKA Cα translocation: do not affect
PKA Cα [4]; primary hippocampal neurons
  effect of agent alone on PKA Cα localization: no effect

## CCCn1c(=O)c2[nH]c(C3CCCC3)nc2n(CCC)c1=O [DPCPX]
PKA Cα [4]
  effect on NPA-induced PKA Cα translocation: do not affect
  effect on ethanol-induced PKA Cα translocation: prevents
PKA Cα [4]; primary hippocampal neurons
  effect of agent alone on PKA Cα localization: no effect

## CCCCCCCCCCCCCCCCCCOCC(COP(=O)([O-])OCC[N+](C)(C)C)OC (centres unmarked) [Et-18-OCH3]
ε-PKC [5]
  Predominant ε-PKC Localization (ethanol + inhibitor): Perinucleus
ε-PKC [1]; [14]
  inhibition of ethanol-induced translocation of ε-PKC: 87%
ε-PKC [1]; [15]
  inhibition of ethanol-induced translocation of ε-PKC: 96%

## CN(C)CCCn1cc(C2=C(c3c[nH]c4ccccc34)C(=O)NC2=O)c2ccccc21 [GF, Bisindoylmaleimide I]
ε-PKC [5]
  Predominant ε-PKC Localization (ethanol + inhibitor): Perinucleus

## O=S(=O)(NCCNC/C=C/c1ccc(Br)cc1)c1cccc2cnccc12 [H-89]
[2]; [16]
  effect on the increase in luciferase expression after 14 hours of exposure to 200 mM ethanol: inhibit the increase in luciferase expression

## Cl.c1ccc([C@@H]2CCC[C@@H]2NC2=NCCCCCCCCCCC2)cc1 [MDL 12, 330A Hydrochloride]
ε-PKC [5]
  Predominant ε-PKC Localization (ethanol + inhibitor): Perinucleus

## COc1cccc(-c2cc(=O)c3ccccc3o2)c1N [PD98059]
[2]; [16]
  effect on the increase in luciferase expression after 14 hours of exposure to 200 mM ethanol: eliminated the increase in luciferase activity

## CCCCCCCCCCCCCC(=O)O[C@@H]1[C@@H](C)[C@@]2(O)[C@@H](C=C(CO)C[C@]3(O)C(=O)C(C)=C[C@@H]23)[C@@H]2C(C)(C)[C@]12OC(C)=O [PMA, phorbol myristate acetate]
δ-PKC [6]
  localization of δ-PKC on activation by PMA: mainly translocated to the perinucleus
ε-PKC [7]
  localization of ε-PKC on activation by PMA: nuclear and perinuclear localization

## CCCCC/C=C\C/C=C\C/C=C\C/C=C\CCCC(=O)N[C@H](C)CO [R(+) methanindamide]
ε-PKC [1]
  Predominant Localization of ε-PKC (agent alone): Cytoplasm
PKA Cα [3]
  translocation of PKA-Cα after co-incubation with ethanol: Synergistic translocation
  translocation of PKA-Cα after co-incubation with NPA: Synergistic translocation

## Nc1ncnc2c1ncn2[C@@H]1O[C@@H]2CO[P@@](O)(=S)O[C@H]2[C@H]1O [Rp-cAMPS]
ε-PKC [5]
  Predominant ε-PKC Localization (ethanol + inhibitor): Perinucleus
[8]
  effect on the ethanol-induced increase in luciferase activity (GAL4-CREB / GAL4-luciferase): inhibited
[2]; NG108-15 cells, 200 mM ethanol co-incubated with Rp-cAMPS 20 μM
  effect on early (4 h) and late (14 h) phases of ethanol-induced increases in luciferase expression: completely inhibited both the early and late phases
ε-PKC [1]
  effect on NPA-induced translocation of ε-PKC: blocked
  effect on ethanol-induced translocation of ε-PKC: blocked
δ-PKC [9]
  effect on NPA-induced translocation of δ-PKC: did not affect
  effect on ethanol-induced translocation of δ-PKC: did not affect
[10]
  effect of agent alone on luciferase activity / gene expression: without effect
PKA Cα [4]; [13]
  effect on NPA-induced PKA Cα translocation: prevent
PKA Cα [4]; primary hippocampal neurons
  effect of agent alone on PKA Cα localization: no effect

## Nc1ncnc2c1ncn2[C@@H]1O[C@@H]2COP(O)(=S)O[C@H]2[C@H]1O (some centres unmarked) [Sp-cAMPS]
ε-PKC [1]; [17]
  translocation of ε PKC on activation of PKA: translocate to the cytoplasm
δ-PKC [9]; [17]
  translocation of δ PKC on activation of PKA: did not induce translocation

## N#CC(=C(/N)Sc1ccccc1N)/C(C#N)=C(\N)Sc1ccccc1N [U0126]
[2]
  effect on the increase in luciferase expression after 14 hours of exposure to 200 mM ethanol: eliminated the increase in luciferase activity

## COc1ccc2c(c1)CC[C@@H]1[C@@H]2CC[C@]2(C)[C@@H](NCCCCCCN3C(=O)C=CC3=O)CC[C@@H]12 [U 73122]
ε-PKC [5]
  Predominant ε-PKC Localization (ethanol + inhibitor): Perinucleus
ε-PKC [1]; [14]
  inhibition of ethanol-induced translocation of ε-PKC: 87%
ε-PKC [1]; [15]
  inhibition of ethanol-induced translocation of ε-PKC: 84%

## Brc1c(NC2=NCCN2)ccc2nccnc12 [UK14304]
ε-PKC [1]; [12]
  Predominant Localization of ε-PKC (agent alone): Perinucleus

## C=C[C@@]1(C)CC(=O)[C@]2(O)[C@@]3(C)[C@@H](O)CCC(C)(C)[C@@H]3[C@H](O)[C@H](OC(C)=O)[C@@]2(C)O1 [forskolin]
[11]; neutrophils from non-alcoholics, 200 mM ethanol or 100 nM forskolin
  effect on localization of the catalytic subunits of PKA (Cα, Cβ, Cγ): no effect
[11]; neutrophils, ethanol or forskolin
  effect on the localization of RIIα: no effect

## O=C(CCCN1CCC2(CC1)C(=O)NCN2c1ccccc1)c1ccc(F)cc1 [spiperone]
ε-PKC [1]
  effect on NPA-induced translocation of ε-PKC: blocked
  effect on ethanol-induced translocation of ε-PKC: no effect
ε-PKC [1]; 10 μM spiperone + 50 nM NPA
  Predominant Localization of ε-PKC (antagonist + NPA): Perinucleus
ε-PKC [1]; [18]
  Predominant Localization of ε-PKC (antagonist + ethanol): Cytoplasm
δ-PKC [9]
  effect on NPA-induced translocation of δ-PKC: blocked
  effect on ethanol-induced translocation of δ-PKC: no effect
δ-PKC [9]; 10 μM spiperone + 50 nM NPA
  Predominant Localization of δ-PKC (antagonist + NPA): Golgi
δ-PKC [9]; [18]
  Predominant Localization of δ-PKC (antagonist + ethanol): Perinucleus &
PKA Cα [3]
  effect on NPA-induced translocation of PKA Cα: blocked
  effect on ethanol-induced translocation of PKA Cα: no effect
PKA Cα [3]; 10 μM spiperone + 50 nM NPA
  Predominant Localization of PKA Cα (antagonist + NPA): Golgi
PKA Cα [3]; 10 μM spiperone + 200 mM ethanol
  Predominant Localization of PKA Cα (antagonist + ethanol): Nucleus &
[10]
  effect of agent alone on luciferase activity / gene expression: without effect
PKA Cα [4]; [13]
  effect on NPA-induced PKA Cα translocation: blocks
PKA Cα [4]; primary hippocampal neurons
  effect of agent alone on PKA Cα localization: no effect
